In ChEMBL document CHEMBL4842358, “Design, synthesis and biological evaluation of sphingosine-1-phosphate receptor 2 antagonists as potent 5-FU-resistance reversal agents for the treatment of colorectal cancer” (Eur J Med Chem, 2021):
Active and inactive are the calls of the source. The rule behind the calls is not given here.

How the values were obtained:
[1] = AUC (0 to t) in Sprague-Dawley rat blood at 1 mg/kg, iv measured for 24 hrs by LC-MS/MS analysis; format: ADME, organism-based; set-up: time 24 hrs, dose 1 mg/kg
[2] = Half life in Sprague-Dawley rat blood at 1 mg/kg, iv measured for 24 hrs by LC-MS/MS analysis; format: ADME, organism-based
[3] = Initial drug concentration in Sprague-Dawley rat blood at 1 mg/kg, iv by LC-MS/MS analysis; format: ADME, organism-based
[4] = Initial plasma concentration in Sprague-Dawley rat at 1 mg/kg, iv by LC-MS/MS analysis; format: ADME, organism-based
[5] = Toxicity in athymic nude mouse xenografted with human SW620/5-FU cells assessed as histopathological changes in liver at 12.5 mg/kg/day, iv administered for 24 days in presence of 5-FU and measured on day 24 by immunohistochemistry; format: organism-based; conditions: in vivo, 576 h, time 24 day
[6] = system: Mus musculus; assay: Downregulation of DPD expression in liver of athymic nude mouse xenografted with human SW620/5-FU at 12.5 mg/kg/day, iv administered for 24 days in presence of 5-FU and measured on day 24 by immunohistochemistry; format: functional, organism-based; conditions: time 24.0 day
[7] = system: Mus musculus; assay: Downregulation of DPD expression in tumour of athymic nude mouse xenografted with human SW620/5-FU at 12.5 mg/kg/day, iv administered for 24 days in presence of 5-FU and measured on day 24 by immunohistochemistry; format: functional, organism-based; conditions: time 24.0 day
[8] = Reversal of 5-FU resistance against human SW620/5-FU cells xenografted in athymic nude mouse assessed as potentiation of 5-FU induced antitumor activity by measuring inhibition of tumor growth at 12.5 mg/kg/day, iv administered for 24 days in presence of 5-FU (reference value: 18.54%); format: functional; conditions: 576 h, time 24 day, read-out: TGI
[9] = Toxicity in athymic nude mouse xenografted with human SW620/5-FU cells assessed as body weight loss at 12.5 mg/kg/day, iv administered for 24 days in presence of 5-FU and measured after 12 days; format: organism-based; conditions: in vivo, 288 h, time 12 day
[10] = biological target: T1, Sphingosine 1-phosphate receptor 2 (Homo sapiens, UniProt O95136); assay: Binding affinity to S1PR2 (unknown origin) assessed as association constant measured for 60 secs by surface plasmon resonance assay; conditions: filed as antagonist, time 60.0 sec
T1 sequence (O95136 whole entry): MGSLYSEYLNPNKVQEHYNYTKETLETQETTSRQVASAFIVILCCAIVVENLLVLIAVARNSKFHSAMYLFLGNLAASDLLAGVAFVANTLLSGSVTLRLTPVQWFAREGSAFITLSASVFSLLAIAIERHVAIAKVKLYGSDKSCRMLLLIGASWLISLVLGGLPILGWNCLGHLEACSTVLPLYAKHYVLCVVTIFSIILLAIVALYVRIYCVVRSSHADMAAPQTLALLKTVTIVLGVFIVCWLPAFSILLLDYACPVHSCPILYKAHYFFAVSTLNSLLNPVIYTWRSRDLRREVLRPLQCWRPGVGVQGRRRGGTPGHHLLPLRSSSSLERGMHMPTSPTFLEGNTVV

[11] = biological target: T1, Sphingosine 1-phosphate receptor 2; assay: Binding affinity to S1PR2 (unknown origin) assessed as dissociation constant measured for 60 secs by surface plasmon resonance assay
[12] = biological target: T1, Sphingosine 1-phosphate receptor 2; assay: Binding affinity to S1PR2 (unknown origin) measured by surface plasmon resonance assay; conditions: filed as antagonist
[13] = Reversal of 5-FU resistance against human SW620/5-FU cells assessed as inhibition of cell proliferation measured after 72 hrs in presence of 5-FU by MTT assay; format: functional, cell-based
[14] = system: HCT-116; assay: Reversal of 5-FU resistance against human HCT-116 cells overexpressing DPD assessed as inhibition of cell proliferation measured after 72 hrs in presence of 5-FU by MTT assay; format: functional, cell-based; conditions: HCT-116, 72 h
[15] = system: NCM460; assay: Cytotoxicity against human NCM460 cells assessed as cell viability measured after 72 hrs in presence of 5-FU by MTT assay; format: cell-based; conditions: NCM460, 72 h
[16] = biological target: T1, Sphingosine 1-phosphate receptor 2; assay: Antagonist activity at S1PR2 in human SW620/5-FU cells assessed as reduction of DPD-catalyzed 5-FU degradation by measuring intracellular 5-FU level at 2 uM measured after 6 hrs by HPLC-UV analysis; format: functional, cell-based; conditions: filed as antagonist
[17] = biological target: T1, Sphingosine 1-phosphate receptor 2; assay: Antagonist activity at S1PR2 in human SW620/5-FU cells assessed as reduction of DPD-catalyzed 5-FU degradation by measuring intracellular FBAL level at 2 uM measured after 6 hrs by HPLC-UV analysis; format: functional, cell-based; conditions: filed as antagonist
[18] = Half life in Sprague-Dawley rat plasma at 1 mg/kg, iv measured for 24 hrs by LC-MS/MS analysis; format: ADME, organism-based
[19] = AUC (0 to t) in Sprague-Dawley rat plasma at 1 mg/kg, iv measured for 24 hrs by LC-MS/MS analysis; format: ADME, organism-based; set-up: dose 1 mg/kg, time 24 hrs
[20] = AUC (0 to infinity) in Sprague-Dawley rat blood at 1 mg/kg, iv by LC-MS/MS analysis; format: ADME, organism-based; set-up: route intravenous, time infinity, dose 1 mg/kg
[21] = AUC (0 to infinity) in Sprague-Dawley rat plasma at 1 mg/kg, iv by LC-MS/MS analysis; format: ADME, organism-based; set-up: time infinity, route intravenous, dose 1 mg/kg
[22] = Volume of distribution in Sprague-Dawley rat blood at 1 mg/kg, iv measured for 24 hrs by LC-MS/MS analysis; format: ADME, organism-based
[23] = Volume of distribution in Sprague-Dawley rat plasma at 1 mg/kg, iv measured for 24 hrs by LC-MS/MS analysis; format: ADME, organism-based
[24] = Clearance in Sprague-Dawley rat blood at 1 mg/kg, iv measured for 24 hrs by LC-MS/MS analysis; format: ADME, organism-based
[25] = Clearance in Sprague-Dawley rat plasma at 1 mg/kg, iv measured for 24 hrs by LC-MS/MS analysis; format: ADME, organism-based
[26] = Mean residence time (0 to t) in Sprague-Dawley rat blood at 1 mg/kg, iv measured for 24 hrs by LC-MS/MS analysis; format: ADME, organism-based
[27] = Mean residence time (0 to t) in Sprague-Dawley rat plasma at 1 mg/kg, iv measured for 24 hrs by LC-MS/MS analysis; format: ADME, organism-based
[28] = Mean residence time (0 to infinity) in Sprague-Dawley rat blood at 1 mg/kg, iv by LC-MS/MS analysis; format: ADME, organism-based
[29] = Mean residence time (0 to infinity) in Sprague-Dawley rat plasma at 1 mg/kg, iv by LC-MS/MS analysis; format: ADME, organism-based
[30] = Drug concentration in Sprague-Dawley rat blood at 1 mg/kg, iv measured after 8 hrs by LC-MS/MS analysis; format: ADME, organism-based; conditions: read-out: Ct
[31] = Plasma concentration in Sprague-Dawley rat at 1 mg/kg, iv measured after 8 hrs by LC-MS/MS analysis; format: ADME, organism-based
[32] = Ratio of drug level in Sprague-Dawley rat blood to plasma at 1 mg/kg, iv measured for 24 hrs by LC-MS/MS analysis; format: ADME, organism-based; conditions: blood and plasma
[33] = system: Mus musculus; assay: Downregulation of DPD expression in colon of athymic nude mouse xenografted with human SW620/5-FU cells at 12.5 mg/kg/day, iv administered for 24 days in presence of 5-FU and measured on day 24 by immunohistochemistry; format: functional, organism-based; conditions: time 24.0 day

Work on `Cc1nn(C)c2nc(NNC(=O)Nc3cc(Cl)nc(Cl)c3)cc(C(C)C)c12` yielded an AUC(0-t) at 24 h [1] of 726 ng·h/mL, a half-life [2] of 60 min and a C0 [3] of 1840 ng/mL. For the same molecule, the C0 [4] was 2020 ng/mL, the Activity [5] was “Non-Toxic” and the inhibition [6] was “Active”. For the same molecule, the inhibition [7] was “Active”, the inhibition in vivo at 12.5 mg/kg/day [8] was 29.9% and the Activity [9] was “Toxic”. The Ka [10] was 8.21 10^4/M/s, the “Dissociation rate constant (koff)” value [11] was 1.61 10^-1/s and the K [12] was 1.96 10^-6M. For the same molecule, the EC50 [13] was 58.6 µM, the EC50 [14] was 17.1 µM and the EC50 [15] was 61.3 µM. It also gave an Activity [16] of 4.87 mg/L, an Activity [17] of 1.37 mg/L and a half-life [18] of 66 min. It also gave an AUC(0-t) at 24 h [19] of 482 ng·h/mL, an AUC(0-inf) [20] of 738 ng·h/mL and an AUC(0-inf) [21] of 484 ng·h/mL. The Vd [22] was 2.1 L/kg, the Vd [23] was 3.1 L/kg and the clearance [24] was 23.3 mL/min/kg. It also gave a clearance [25] of 35 mL/min/kg, an MRT last at 24 h [26] of 54 min and an MRT last at 24 h [27] of 54 min. It also gave an MRT inf [28] of 60 min, an MRT inf [29] of 54 min and a concentration at 8 h [30] of less than 1 ng/mL. The concentration at 8 h [31] was less than 1 ng/mL, the blood plasma ratio at 24 h [32] was 1.62 and the inhibition [33] was “inactive”.
